Laboratory results published in article PMC8152782, “Synthesis and evaluation of bis(imino)anthracene derivatives as G-quadruplex ligands” (RSC Medicinal Chemistry, 2021).
Like-named read-outs stand apart in the source and are kept apart here.

Assays:
[1] = tested on: d(TTGGGTT)4; experiment: NMR titration of ligands with G-quadruplex oligonucleotide; format: binding; settings: for Difference from 11.55 ppm (ppm) G3NH: 1H NMR chemical shift difference of G-quadruplex peak G3NH on ligand addition; for Difference from 11.22 ppm (ppm) G4NH: 1H NMR chemical shift difference of G-quadruplex peak G4NH on ligand addition; for Difference from 10.86 ppm (ppm) G5NH: 1H NMR chemical shift difference of G-quadruplex peak G5NH on ligand addition; for Difference from 1.58 ppm (ppm) T6CH3: 1H NMR chemical shift difference of G-quadruplex peak T6CH3 on ligand addition; for Difference from 7.23 ppm (ppm) T6H6/8: 1H NMR chemical shift difference of G-quadruplex peak T6H6/8 on ligand addition; for Δδ (ppm): G quadruplex chemical shift difference
Method: Compounds 2a–2e were evaluated for G-quadruplex interaction using NMR titration studies with d(TTGGGTT)4 with intercalation comparisons made against doxorubicin and nemorubicin (see ESI ^† S1). […] We also see the peaks for T6 (methyl, aromatic and ribose) shifting to a lower field in accord with the up-field shift of the G5 peaks. This change is explained by the formation of a complex between the ligand and the tetrad formed at G5, which pushes the T6 unit away from the guanine π-system. This intercalation framework agreed with ESI/MS carried out which illustrated a 1 : 1 complex.[17]
Maximum line broadening occurs at a ratio of 1 : 1 drug to G-quadruplex and chemical shift difference changing up to 1 : 1 with the bound and unbound peaks being present. […]
This oligonucleotide solvent mix was then micro-pipetted at a volume of 0.6ml into NMR tubes. Stock solutions of drug compounds in DMSO-d6 were used to make up the molar ratios of 0.125:1, 0.25:1, 0.5:1 and 1:1 drug to oligomer.
A non-active drug (TC102) and DMSO on its own were added as controls to validate that the effects on the spectra were from cytotoxic elements of the drug compounds rather than the effects from DMSO or addition of compound, which could change environment, pH or shimming of NMR instrument.
Spectra were acquired at 300 K using a Bruker Avance III 600MHz FT‐NMR. The WATERNOESY parameter set which executes the pulse sequence noesygppr1d (Bruker, size […]
experiments with a pre-saturation delay during relaxation and mixing time (experiment time:
14 min 44 sec). With this pulse sequence, all non-exchangeable protons are detected in the deuterated D2O/H2O buffer solution. T1 relaxation experiments were acquired for d1 calibration with a modified version of the zggpw5 pulse sequence. With a saturation recovery […]
pulse and using water suppression (Bruker, size of fid 65536/11 F2/F1, […]
(experimental time 1 h 4 min 6 sec).
Bruker Topspin 3.5 pl7 was used for assignment of peaks, manual phasing, baseline correction and manual integration. Manual integration was done to ensure bias and slope was correct and that the integrals were all of the same width. Calculation of chemical shift change done through built in top spin distance measurements between peaks.

[2] = tested on: HeLa cells; experiment: Presto blue cell viability assay, HeLa cells; format: cell-based, Human; settings: 24 hour incubation, n = 3
Method: Fig. 3 Cell culture, presto blue assay results for 2a, 2b, 2c, 2d, 2e. The data shown is after 24 hour incubation of drug treated HeLa cells. Top chart illustrates mean and SEM of HeLa cell viability at concentrations 100 to 1 μM with positive control (doxorubicin (N2)). In the top charts, values are normalized to negative control (DMSO) at a value of 1 (cell viability). The bottom charts then show the normalized absorbance percentage to the negative control (percentage cell viability) of log inhibitor concentration (multiplied by 10 to account for 1 μM concentration) IC50 values and R squared values are included in the chart. Error bars indicates standard error of mean from n = 3 experiments.
Compounds 2a–2e were subsequently tested against a HeLa cancer cell line (HeLa, American Type Culture Collection (ATCC) (ATCC® CCL-2™)) and they were all prepared in 100, 30, 10 and 1 μM concentrations so that IC50 values could be calculated to establish whether drugs were cytotoxic to HeLa cells (see ESI ^† S1).
Cell suspension (200μl) containing 5000 healthy HeLa cells was seeded in 96-well plates (BDFalcon, Franklin Lakes, NJ) and allowed to attach and stabilize overnight at 37 °C with 5%
CO2. Aspiration of media and rinsing solution was done through pipetting off liquid. Cell viability was then tested with PrestoBlue assay.The presto blue assay was carried out in light sensitive conditions. 100μl of PrestoBlue solution (10% in medium) was added to each well and the plates were incubated at 37 °C for 1 hour. After incubation time, the change in florescence was measured at 570/600 nm using a Spectra Max fluorescence multi-well plate reader.
Dissociation constants were calculated using the curve-fitting software Graphpad Prism 8.
Incubation was done using Thermofisher Steri-Cycle CO2 Incubators and for plate reading Thermofisher Epoch Microplate Spectrophotometer was used. Centrifugation was done by Thermo Scientific Sorvall ST 40 Centrifuge Series.
Commercially available DMEM (Dulbecco’s Modified Eagle Medium- low glucose), including sodium pyruvate and […], 500 mL, was obtained from Gibco, USA. All procedures carried out under sterile conditions, 94 mL of media was taken and the required volume of supplements (10 % Fetal Bovine Serum (FBS), 2 mM/mL Glutamine, 100 U/mL penicillin and 100 µg/mL streptomycin.) were added.
Cell Line and Cell Culture Conditions
Human cervical cancer cell lines (HeLa) were obtained from the American Type Culture Collection (ATCC) (ATCC® CCL-2™). HeLa cells were cultured in Dulbecco’s Eagle Modified Medium low glucose (DMEM) containing 10 % Fetal Bovine Serum (FBS), 2 mM/mL Glutamine, 100 U/mL penicillin and 100 µg/mL streptomycin.
%viable cells = 1 ‒ Number of blue cells x 100 […]
Cryovials were taken from the liquid nitrogen tank and thawed quickly at 37 °C. After that, the cell suspension was transferred to a 15 mL tube and 5 mL of the medium was added into the cell suspension drop by drop with gentle shaking. Centrifugation was done at 1500rpm for 5 min and then supernatant was discarded. After the pellet was resuspended with medium, they were seeded to T-25 flasks. Subsequent to 12 hours incubation, the media was removed and washed with DPBS (1X) (pH:7.4) containing 10 mM sodium dibasic phosphate, 2.7 mM KCI, 2 mM Potassium phosphate,137 mM NaCI. Fresh media was added to the cell monolayer a […]
Assays were carried out using a 96 well plate. This 96-well plate contains one blank, 3 controls which contains cells including a negative control with media, one vehicle control which is DMSO and medium solutions, and a positive control of Doxorubicin (200µL) and media. Drugs were prepared in 100, 30, 10, 1 µM concentrations to make 8 seeded well plates in total which were done in triplicate. All drugs were prepared in DMSO and then diluted in media to give 5µL of DMSO max in 100µM treatments which is controlled by vehicle with a DMSO volume

[3] = tested on: d(TTGGGTT)4; design: method as in PMID 26922833; settings: G quadruplex chemical shift difference; cited from earlier work

Structure (SMILES)	Difference from 11.55 ppm (ppm) G3NH [1] [ppm]	Difference from 11.22 ppm (ppm) G4NH [1] [ppm]	Difference from 10.86 ppm (ppm) G5NH [1] [ppm]	Difference from 1.58 ppm (ppm) T6CH3 [1] [ppm]	Difference from 7.23 ppm (ppm) T6H6/8 [1] [ppm]	Δδ (ppm) [1] [ppm]	IC50 ([2]; Homo sapiens, HeLa, 24 h) [µM]	IC50 [2] [µM]	Δδ (ppm) [3] [ppm]
C(=N\Cc1ccc2c(c1)OCO2)/c1c2ccccc2c(/C=N/Cc2ccc3c(c2)OCO3)c2ccccc12 [Compound 2a]	−0.04	−0.08	−0.2	0.09	0.17	0.2	18.1		
C(=N\CCCN1CCOCC1)/c1c2ccccc2c(/C=N/CCCN2CCOCC2)c2ccccc12 [Compound 2b]	−0.066	−0.135	−0.34	0.093	0.22	0.34	24.4		
C(=N\CCc1c[nH]c2ccccc12)/c1c2ccccc2c(/C=N/CCc2c[nH]c3ccccc23)c2ccccc12 [Compound 2c]	−0.06	−0.115	−0.25	0.157	0.126	0.25	30.5	30.6	
C(=N\CCN1CCCCC1)/c1c2ccccc2c(/C=N/CCN2CCCCC2)c2ccccc12 [Compound 2d]	−0.03	−0.07	−0.13	0.094	0.16	0.13	24	23.8	
Cc1cnc(/N=C/c2c3ccccc3c(/C=N/c3ncc(C)s3)c3ccccc23)s1 [Compound 2e]	−0.056	−0.11	−0.24	0.146	0.19	0.24	20.5		
COc1cccc2c1C(=O)c1c(O)c3c(c(O)c1C2=O)C[C@@](O)(C(=O)CO)C[C@@H]3O[C@H]1C[C@H](N)[C@H](O)[C@H](C)O1 [Doxorubicin]									0.31
COc1cccc2c1C(=O)c1c(O)c3c(c(O)c1C2=O)C[C@@](O)(C(=O)CO)C[C@@H]3O[C@H]1C[C@H](N2CCO[C@H](OC)C2)[C@H](O)[C@H](C)O1 [Nemorubicin]									0.31
